Laboratory results from patent US20250213614A1, “Modified RELA Protein for Inducing Interferon Expression and Engineered Immune Cells with Improved Interferon Expression” (Institut Curie, priority 2022, published 2025).

Tests used:
Format in all cases: cell-based, human
CD4+ T cells [1] = experiment: IFN-I/III quantification (LEGENDplex) in CD4+ T cells, baseline or after STING stimulation; settings: for IFNλ1 after cGAMP stimulation: 2D, 2F
Experimental: (§1) Plasmapheresis blood pockets were obtained from healthy adult volunteers after informed consent from the EFS (Establishment of French blood collection). Peripheral blood mononuclear cells (PBMCs) were isolated using Ficoll-Paque Plus (GE-17144003) and left overnight at 4° C. in RPMI (Thermo fischer #61870-010) with 10% heat-decomplemented fetal bovine serum (FBS, Eurobio #CVFSVFO0-01). CD14+ cells were enriched by positive selection (Miltenyi #130-050-201), the CD14 negative fraction was subsequently used to isolate total CD4+ T cells by negative selection (Stem Cell #17952). CD14+ cells were cultured in RPMI containing 10% FBS, 5% Penicillin-Streptomycin (PS, Thermo Fisher #10378-016), 50 μg/ml Gentamicin (Thermo Fisher #15750-045) and 10 mM HEPES (Thermo Fisher #15630-056). CD14+ cells were differentiated ex vivo into MDDC by supplementing the culture media with 50 ng/ml IL-4 (Miltenyi #130-093-922) and 10 ng/ml GM-CSF (Miltenyi #130-093-867). MDDC were used for experiments 3 or 4 days following the start of the culture. CD14+ cells were differentiated ex vivo into macrophages by adding 50 ng/ml MCSF (Miltenyi #130-096-492) to the culture media containing RPMI with 1% PS, 5% FBS and 5% human serum (Sigma #H4522). MDM were used 7 days following culture. Freshly isolated CD4+ T cells were cultured in X-VIVO 15 (Lonza #BE02-060F) and activated using anti-CD3 and anti-CD28 Dynabeads (fisher scientific #10548353) at the ratio of 1:5 (bead:cell). 100 U/ml human IL-2 (Immunotools #11340027) was added to cultures 2 days following TCR stimulation and media with IL-2 was replenished every 48 hours. To assess proliferation, freshly isolated CD4+ T cells were stained with cell proliferation dye (thermo fischer #65-0840-85) prior to TCR stimulation.
(§2) CD14+ cells were plated at 1 million cells/ml and transduced with equal volumes of freshly harvested SIV-VLPs and pTRIP-SFFV vectors in the presence of 8 μg/ml protamine (Sigma #P4020). CD4+ T cells were transduced with lentivectors 24 hours post-TCR stimulation in 100 μl of cells (0.2 million cells) and 100 μl of freshly harvested lentivirus in the presence of 8 μg/ml protamine. T cells were spinoculated at 1200 g for 2 hours at 25° C. 0.5 million THP-1 cells in 500 μl media (RPMI 10% FBS 1% PS) were transduced with 500 μl freshly harvested lentivirus in the presence of 8 μg/ml protamine. 1 μg/ml Puromycin (Invivogen #ant-pr-1) was added 2 days post-transduction when cells were transduced with pLKO.1-puro plasmid.
For stimulation of STING by extracellular ligands, 2.5 μg of ADUS100 (invivogen #tlrl-nacda2r-01) or 2′3′-cGAMP (cGAMP, invivogen #tlrl-nacga23-02) was added to 100,000 cells in 100 μl media either on freshly isolated primary cells or 3-4 days post differentiation for MDDC and 3 days post-TCR stimulation for CD4+ T cells. Cells and supernatant were harvested 18-24 hours post stimulation. For delivery of STING ligands after permeabilization, T cells were used 3 or 4 days post TCR stimulation and MDDC were used 3-4 days following differentiation. 150,000 cells were plated in round bottom 96-well plate. Media was removed by centrifugation and 20 μl 2× permeabilization buffer (100 mM HEPES, 200 mM KCl, 6 mM MgCl2, 0.2 mM DTT, 170 mM Sucrose, 2 mM ATP, 2 mM GTP, 0.4% bovine serum albumin (BSA), 20 μg/ml digitonin) and 20 μl cGAMP (12 μg/ml) was added to cells. 18 to 20 hours following stimulation supernatants and cells were harvested. Cells were stained with a fixable viability dye (Invitrogen #65-0865-14) and acquired on a FACSVerse (BD). […]
Where indicated, cells were treated with 5-Azacytidine (5AZA, Sigma #A2385) 48 hours prior to cGAMP stimulation. Fresh 5AZA was added daily to cells, and media was replenished with 5AZA following cGAMP stimulation. 100 nM Trichostatin A (TSA) (sigma #T1952) was added to cells following cGAMP stimulation and left overnight. […]

CD4+ T cells [2] = experiment: Bulk RNAseq of activated CD4+ T cells after cGAMP; settings: five hours after cGAMP 6 μg/ml
Experimental: Five hours following cGAMP (6 μg/ml) stimulation of activated CD4+ T cells, total RNA was extracted (Macherey-Nagel #740955.50). […] RNA sequencing libraries were prepared from 500 ng of total RNA using the Illumina TruSeq Stranded mRNA Library preparation kit. A first step of polyA selection using magnetic beads was performed to focus sequencing on polyadenylated transcripts. After fragmentation, cDNA synthesis was performed and resulting fragments were used for dA-tailing and ligated to the TruSeq indexed adapters. PCR amplification was performed to create the final cDNA library (with 13 cycles). After quantification of PCR products, sequencing was carried out using 2*100 cycles (paired-end reads, 100 nucleotides) on a Novaseq6000 instrument, targeting 25M clusters. The data was aligned to the hg19 (ENSEMBL annotation: v.74) genome using the RNA-seq pipeline of the Curie bioinformatics platform, rnaseq v3.1.1. Reads were trimmed with TrimGalore (v.0.6.2) and aligned on the reference genome using STAR (v 2.6.1) ^71. Quality control was done with picard (v.2.18.15), RSeQC (v.2.6.4) and preseq (v.2.0.3)^72. Read counts were generated with STAR. Quality reports were generated with MultiQC (v.1.7). […]

[3] = test system: STING, TBK1, IRF3, RELA, IRF7; experiment: Western blot of key signaling proteins involved in STING signaling; settings: for endogenous RELA expression: overexpression in CD4+ T cells and MDDC, FIG. 2C
Experimental: 0.5 million cells were lysed for 30 minutes on ice in 50 μl RIPA buffer (50 mM Tris HCl, 150 mM NaCl, 0.1% SDS, 0.5% DOC, 1% NP-40) with Protease inhibitor (Roche #1187358001). To evaluate, phospho-proteins 50 mM NaF and 1 mM sodium orthovanadate were added to the lysis buffer. Protein lysates were cleared by centrifugation at 12,000 g for 10 to 12 minutes at 4° C. 10 μl of 6× Laemmli buffer (fisher scientific #J61337) was added to 50 μl protein lysates and samples were boiled at 95° C. for 15 minutes. Protein samples were resolved on 4%-20% Biorad precast SDS-PAGE gels (#5671125) and transferred onto PVDF membranes (BioRad #1704157). Membranes were blocked in 5% non-fat dry milk in PBS 0.1% tween or in TBS 5% BSA 0.1% Tween to detect phosphorylated proteins. Primary antibodies were used at 1:1000:phospho-STING (clone-D7C3S), STING (clone-D2P2F), serine 172 phospho-TBK1 (clone-D52C2), TBK1 (clone-D11B4), serine 396 phospho IRF3 (clone-D6O1M), IRF3 (clone-D83B9), RELA (clone-C22B4), IRF7 (clone-12G9A36), cGAS (clone-D1 D3G), Actin (clone-C4), Sendai viral proteins (Biozol #MBL-PD029). Secondary anti-rabbit or anti-mouse antibody were used at 1:10,000 (santa cruz #sc-2357, #sc-516102). ECL signal (Biorad #1705061 and #1705062) was recorded on a ChemiDoc Touch Biorad Imager. Data was analyzed and quantified with Image Lab software (Biorad). In figures, dotted lines indicate reordering of lanes from a single original membrane for visualization purpose.

MDDC = experiment: IFN-I/III quantification (LEGENDplex) in MDDC after STING stimulation; settings: lentivector overexpression in MDDC, cGAMP 6 μg/ml; for IFN-I/III response to cGAMP compared to the control condition: FIG. 2D
Experimental: as §1, §2
For stimulation of STING by extracellular ligands, 2.5 μg of ADUS100 (invivogen #tlrl-nacda2r-01) or 2′3′-cGAMP (cGAMP, invivogen #tlrl-nacga23-02) was added to 100,000 cells in 100 μl media either on freshly isolated primary cells or 3-4 days post differentiation for MDDC and 3 days post-TCR stimulation for CD4+ T cells. Cells and supernatant were harvested 18-24 hours post stimulation. For delivery of STING ligands after permeabilization, T cells were used 3 or 4 days post TCR stimulation and MDDC were used 3-4 days following differentiation. 150,000 cells were plated in round bottom 96-well plate. Media was removed by centrifugation and 20 μl 2× permeabilization buffer (100 mM HEPES, 200 mM KCl, 6 mM MgCl2, 0.2 mM DTT, 170 mM Sucrose, 2 mM ATP, 2 mM GTP, 0.4% bovine serum albumin (BSA), 20 μg/ml digitonin) and 20 μl cGAMP (12 μg/ml) was added to cells. 18 to 20 hours following stimulation supernatants and cells were harvested. Cells were stained with a fixable viability dye (Invitrogen #65-0865-14) and acquired on a FACSVerse (BD).
For experiments with conditioned media, CD4+ T cell- and MDDC-conditioned media refer to […] filtered conditioned media from cultures of activated CD4+ T cell and MDDC, respectively. CD4+ T cells were pretreated with 100 μl of MDDC-conditioned media or of fresh MDDC culture media, 24 hours prior to cGAMP stimulation. […]

[4] = lentivector overexpression in CD4+ T cells, FIG. 2B

Row | Molecule | IFNβ protein (CD4+ T cells [1]; cGAMP delivered by digitonin-mediated membrane permeabilization, FIG. 1F) | IFN response to STING ligands (CD4+ T cells [1]; resting blood CD4+ T cells, soluble ligand 1 μg or 2.5 μg, FIG. 1B) | IRF7 expression (RNAseq) (CD4+ T cells [2]) | phosphorylated levels of STING, TBK1 and IRF3, CD4+ T cells versus MDDC ([3]; 6 hours after cGAMP 6 μg/ml, FIG. 1G) | IFN-I/III response to cGAMP, RNA and protein levels (MDDC; FIG. 2B) | IFN-I/III response to cGAMP compared to the control condition (MDDC) | IFNλ1 after cGAMP stimulation (CD4+ T cells [1]; [4]) | IFN-I/III response to cGAMP, RNA and protein levels (CD4+ T cells [1]; lentivector overexpression in CD4+ T cells, cGAMP 6 μg/ml, FIG. 2B) | endogenous RELA expression [3]
1 | Nc1nc2c(ncn2[C@@H]2O[C@@H]3COP(=O)(O)O[C@H]4[C@@H](O)[C@H](n5cnc6c(N)ncnc65)O[C@@H]4COP(=O)(O)O[C@@H]2[C@@H]3O)c(=O)[nH]1 [cGAMP, 2′3′-cGAMP, reference compound] | undetectable | undetectable | induced | identical |  |  |  |  | 
2 | RELA: wild type human RELA protein (transcription factor p65, Uniprot Q04206), overexpressed from lentivector [reference compound] |  |  |  |  | did not significantly enhance | remained unchanged | tendency for increased IFNλ1 | did not significantly enhance | no impact
3 | RELA K5Q: RELA mutant converting five lysine residues (K122, K123, K310, K314, K315) to glutamine, acetylation mimic (protein, UniProt Q04206 1-551, looked up, variant K122Q K123Q K310Q K314Q K315Q) Transcription factor p65: MDELFPLIFPAEPAQASGPYVEIIEQPKQRGMRFRYKCEGRSAGSIPGERSTDTTKTHPTIKINGYTGPGTVRISLVTKDPPHRPHPHELVGKDCRDGFYEAELCPDRCIHSFQNLGIQCVQQRDLEQAISQRIQTNNNPFQVPIEEQRGDYDLNAVRLCFQVTVRDPSGRPLRLPPVLSHPIFDNRAPNTAELKICRVNRNSGSCLGGDEIFLLCDKVQKEDIEVYFTGPGWEARGSFSQADVHRQVAIVFRTPPYADPSLQAPVRVSMQLRRPSDRELSEPMEFQYLPDTDDRHRIEEKRKRTYETFQSIMQQSPFSGPTDPRPPPRRIAVPSRSSASVPKPAPQPYPFTSSLSTINYDEFPTMVFPSGQISQASALAPAPPQVLPQAPAPAPAPAMVSALAQAPAPVPVLAPGPPQAVAPPAPKPTQAGEGTLSEALLQLQFDDEDLGALLGNSTDPAVFTDLASVDNSEFQQLLNQGIPVAPHTTEPMLMEYPEAITRLVTGAQRPPDPAPAPLGAPGLPNGLLSGDEDFSSIADMDFSALLSQISS |  |  |  |  |  | remained unchanged | abrogated |  | no impact
